Results: PubChem BioAssay AID2060627 (Molecular Pharmacology Branch, DTP, NCI, 2025)

Tested on: 156681-154-R-J1-PDC complex spheroid viability
Test: Anticancer human tumor 156681-154-R-J1-PDC patient-derived melanoma cell line growth inhibition [CLK]
Conditions: for IC50: curve of first compound; for viability, T/C: stronger effect = lower value
In short: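 Multi-cell-type spheroids combined patient-derived tumor cells with HUVEC endothelial cells and human mesenchymal stem cells. Paired agents were dosed in half-log steps down from about clinical Cmax, or from 10 microM where Cmax was unknown.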

[1] = second compound 0.0316 µM, first compound 0.0316 µM
[2] = second compound 0.0316 µM, first compound 0.1 µM
[3] = second compound 0.0316 µM, first compound 0.316 µM
[4] = second compound 0.0316 µM, first compound 1 µM
[5] = second compound 0.0316 µM, first compound 3.16 µM
[6] = second compound 0.0316 µM, first compound 10 µM
[7] = second compound 0.1 µM, first compound 0.0316 µM
[8] = second compound 0.1 µM, first compound 0.1 µM
[9] = second compound 0.1 µM, first compound 0.316 µM
[10] = second compound 0.1 µM, first compound 1 µM
[11] = second compound 0.1 µM, first compound 3.16 µM
[12] = second compound 0.1 µM, first compound 10 µM
[13] = second compound 0.316 µM, first compound 0.0316 µM
[14] = second compound 0.316 µM, first compound 0.1 µM
[15] = second compound 0.316 µM, first compound 0.316 µM
[16] = second compound 0.316 µM, first compound 1 µM
[17] = second compound 0.316 µM, first compound 3.16 µM
[18] = second compound 0.316 µM, first compound 10 µM
[19] = second compound 1 µM, first compound 0.0316 µM
[20] = second compound 1 µM, first compound 0.1 µM
[21] = second compound 1 µM, first compound 0.316 µM
[22] = second compound 1 µM, first compound 1 µM
[23] = second compound 1 µM, first compound 3.16 µM
[24] = second compound 1 µM, first compound 10 µM
[25] = second compound 3.16 µM, first compound 0.0316 µM
[26] = second compound 3.16 µM, first compound 0.1 µM
[27] = second compound 3.16 µM, first compound 0.316 µM
[28] = second compound 3.16 µM, first compound 1 µM
[29] = second compound 3.16 µM, first compound 3.16 µM
[30] = second compound 3.16 µM, first compound 10 µM
[31] = second compound 10 µM, first compound 0.0316 µM
[32] = second compound 10 µM, first compound 0.1 µM
[33] = second compound 10 µM, first compound 0.316 µM
[34] = second compound 10 µM, first compound 1 µM
[35] = second compound 10 µM, first compound 3.16 µM
[36] = second compound 10 µM, first compound 10 µM
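Note: spheroids exposed to the agents for seven days.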
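Throughout, for viability, T/C: 100% = DMSO vehicle control viability.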

Compound: C=CC(=O)N1CCN(c2nc(=O)n(-c3c(C)ccnc3C(C)C)c3nc(-c4c(O)cccc4F)c(F)cc23)C(C)C1 (stereo not drawn) + CNC(=O)c1ccc(Nc2nc(OC3CCCC3)c3c(-c4ccc5nc(C)oc5c4)c[nH]c3n2)c(OC)c1
- IC50 (second compound 0.0316 µM): > 10 µM
- IC50 (second compound 0.1 µM): > 10 µM
- IC50 (second compound 0.316 µM): 5.09 µM
- IC50 (second compound 1 µM): < 0.0316 µM
- IC50 (second compound 3.16 µM): < 0.0316 µM
- IC50 (second compound 10 µM): < 0.0316 µM
- viability, T/C [1]: 83.4%
- viability, T/C [2]: 105%
- viability, T/C [3]: 91.4%
- viability, T/C [4]: 106%
- viability, T/C [5]: 129%
- viability, T/C [6]: 82.7%
- viability, T/C [7]: 47.1%
- viability, T/C [8]: 67.9%
- viability, T/C [9]: 71.1%
- viability, T/C [10]: 58.5%
- viability, T/C [11]: 70.6%
- viability, T/C [12]: 36%
- viability, T/C [13]: 61.1%
- viability, T/C [14]: 71.6%
- viability, T/C [15]: 72.3%
- viability, T/C [16]: 71.2%
- viability, T/C [17]: 65.6%
- viability, T/C [18]: 27.2%
- viability, T/C [19]: 51.9%
- viability, T/C [20]: 51%
- viability, T/C [21]: 36.9%
- viability, T/C [22]: 52.3%
- viability, T/C [23]: 49%
- viability, T/C [24]: 14.8%
- viability, T/C [25]: 35%
- viability, T/C [26]: 40.4%
- viability, T/C [27]: 33.4%
- viability, T/C [28]: 44.2%
- viability, T/C [29]: 40.1%
- viability, T/C [30]: 23.4%
- viability, T/C [31]: 41.6%
- viability, T/C [32]: 30.6%
- viability, T/C [33]: 37.4%
- viability, T/C [34]: 36.3%
- viability, T/C [35]: 30.9%
- viability, T/C [36]: 12.4%

Compound: CC1(C)CCC(CN2CCN(c3ccc(C(=O)NS(=O)(=O)c4ccc(NCC5CCOCC5)c([N+](=O)[O-])c4)c(Oc4cnc5[nH]ccc5c4)c3)CC2)=C(c2ccc(Cl)cc2)C1 + CN1CCN(c2cc(C(=O)Nc3cc4cc(-c5cnn(C)c5)ccc4cn3)ccn2)CC1
- IC50 (second compound 0.0316 µM): 4.99 µM
- IC50 (second compound 0.1 µM): 4.37 µM
- IC50 (second compound 0.316 µM): < 0.0316 µM
- IC50 (second compound 1 µM): < 0.0316 µM
- IC50 (second compound 3.16 µM): < 0.0316 µM
- IC50 (second compound 10 µM): < 0.0316 µM
- viability, T/C [1]: 99.7%
- viability, T/C [2]: 116%
- viability, T/C [3]: 90.8%
- viability, T/C [4]: 103%
- viability, T/C [5]: 81.6%
- viability, T/C [6]: 1.68%
- viability, T/C [7]: 97.8%
- viability, T/C [8]: 83.3%
- viability, T/C [9]: 86%
- viability, T/C [10]: 88.8%
- viability, T/C [11]: 69.2%
- viability, T/C [12]: 0.79%
- viability, T/C [13]: 18.2%
- viability, T/C [14]: 19.7%
- viability, T/C [15]: 24.4%
- viability, T/C [16]: 17.9%
- viability, T/C [17]: 8.72%
- viability, T/C [18]: 0.28%
- viability, T/C [19]: 0.22%
- viability, T/C [20]: 0.91%
- viability, T/C [21]: 0.19%
- viability, T/C [22]: 0.18%
- viability, T/C [23]: 2.05%
- viability, T/C [24]: 0.07%
- viability, T/C [25]: 2.04%
- viability, T/C [26]: 0.47%
- viability, T/C [27]: 0.27%
- viability, T/C [28]: 0.09%
- viability, T/C [29]: 3.38%
- viability, T/C [30]: 0.4%
- viability, T/C [31]: 0.1%
- viability, T/C [32]: 3.06%
- viability, T/C [33]: 2.9%
- viability, T/C [34]: 0.17%
- viability, T/C [35]: 0.91%
- viability, T/C [36]: 0.56%

Compound: O=C(c1cc(Cc2n[nH]c(=O)c3ccccc23)ccc1F)N1CCN(C(=O)C2CC2)CC1 + CN1CCN(c2cc(C(=O)Nc3cc4cc(-c5cnn(C)c5)ccc4cn3)ccn2)CC1
- IC50 (second compound 0.0316 µM): > 10 µM
- IC50 (second compound 0.1 µM): > 10 µM
- IC50 (second compound 0.316 µM): < 0.0316 µM
- IC50 (second compound 1 µM): < 0.0316 µM
- IC50 (second compound 3.16 µM): < 0.0316 µM
- IC50 (second compound 10 µM): < 0.0316 µM
- viability, T/C [1]: 104%
- viability, T/C [2]: 110%
- viability, T/C [3]: 89.1%
- viability, T/C [4]: 76.5%
- viability, T/C [5]: 75.3%
- viability, T/C [6]: 64.6%
- viability, T/C [7]: 87.9%
- viability, T/C [8]: 74.5%
- viability, T/C [9]: 70.3%
- viability, T/C [10]: 74.4%
- viability, T/C [11]: 76.4%
- viability, T/C [12]: 55.7%
- viability, T/C [13]: 19.1%
- viability, T/C [14]: 19.4%
- viability, T/C [15]: 20.1%
- viability, T/C [16]: 18%
- viability, T/C [17]: 17.7%
- viability, T/C [18]: 21.2%
- viability, T/C [19]: 0.14%
- viability, T/C [20]: 1.63%
- viability, T/C [21]: 0.21%
- viability, T/C [22]: 0.5%
- viability, T/C [23]: 0.68%
- viability, T/C [24]: 1.61%
- viability, T/C [25]: 0.08%
- viability, T/C [26]: 1.74%
- viability, T/C [27]: 1.83%
- viability, T/C [28]: 0.06%
- viability, T/C [29]: 0.24%
- viability, T/C [30]: 0.71%
- viability, T/C [31]: 0.1%
- viability, T/C [32]: 2.76%
- viability, T/C [33]: 1.36%
- viability, T/C [34]: 2.17%
- viability, T/C [35]: 1.6%
- viability, T/C [36]: 0.56%

Compound: CC(=O)O[C@H]1C(=O)[C@@]2(C)[C@H]([C@H](OC(=O)c3ccccc3)[C@]3(O)C[C@H](OC(=O)[C@H](O)[C@@H](NC(=O)c4ccccc4)c4ccccc4)C(C)=C1C3(C)C)[C@]1(OC(C)=O)CO[C@@H]1C[C@@H]2O + CNC(=O)c1ccc(Nc2nc(OC3CCCC3)c3c(-c4ccc5nc(C)oc5c4)c[nH]c3n2)c(OC)c1
- IC50 (second compound 0.0316 µM): < 0.0316 µM
- IC50 (second compound 0.1 µM): < 0.0316 µM
- IC50 (second compound 0.316 µM): > 10 µM
- IC50 (second compound 1 µM): > 10 µM
- IC50 (second compound 3.16 µM): > 10 µM
- IC50 (second compound 10 µM): > 10 µM
- viability, T/C [1]: 16.8%
- viability, T/C [2]: 19%
- viability, T/C [3]: 13.9%
- viability, T/C [4]: 19.6%
- viability, T/C [5]: 30.7%
- viability, T/C [6]: 41.1%
- viability, T/C [7]: 36.3%
- viability, T/C [8]: 24.6%
- viability, T/C [9]: 38.9%
- viability, T/C [10]: 44.2%
- viability, T/C [11]: 61.3%
- viability, T/C [12]: 56.1%
- viability, T/C [13]: 78.4%
- viability, T/C [14]: 88.8%
- viability, T/C [15]: 55.4%
- viability, T/C [16]: 91.9%
- viability, T/C [17]: 102%
- viability, T/C [18]: 95.3%
- viability, T/C [19]: 58.5%
- viability, T/C [20]: 66.6%
- viability, T/C [21]: 65.5%
- viability, T/C [22]: 71.7%
- viability, T/C [23]: 85%
- viability, T/C [24]: 76.4%
- viability, T/C [25]: 63.2%
- viability, T/C [26]: 60.1%
- viability, T/C [27]: 56%
- viability, T/C [28]: 71.4%
- viability, T/C [29]: 78.6%
- viability, T/C [30]: 58.4%
- viability, T/C [31]: 51.6%
- viability, T/C [32]: 51.3%
- viability, T/C [33]: 55.2%
- viability, T/C [34]: 47.1%
- viability, T/C [35]: 57.5%
- viability, T/C [36]: 55.2%
